US20040175813A1, “Mutant P53 proteins and uses thereof” (priority 2002, published 2004)

Tested on: MCF-7 c-Jun over-expressing cells
Assay: Sensitivity of c-Jun over-expressing cells to apoptotic inducing agents, DNA fragmentation
Format: cell-based, human
Settings: for DNA fragmentation in cells cultured with the agent: FIG. 4A; for Sensitivity of c-Jun over-expressing cells to the apoptotic inducing agent: compared to vector control, FIG. 3
Source text: Human MCF-7 cells were stably transfected with wild type transcription factor c-jun and expressed high levels of c-Jun protein. The c-Jun over-expressing MCF-7 cells were obtained from Drs. Michael Birrer (National Institutes of Health, National Cancer Institute, Rockville, Md.) and Paul Brown (Baylor College of Medicine, Houston, Texas). A description of the c-Jun over-expressing MCF-7 cells can be found in Yang et al. (1997) and Smith et al. (1999).
Bax levels were not altered (FIG. 2A).

| Compound | DNA fragmentation in cells cultured with the agent | Sensitivity of c-Jun over-expressing cells to the apoptotic inducing agent |
| --- | --- | --- |
| CC1=C(/C=C/C(C)=C/C=C/C(C)=C/C(=O)Nc2ccc(O)cc2)C(C)(C)CCC1 [N-(4-hydroxyphenyl) retinamide (4-HPR), N-(4-hydroxyphenyl) retinamide] | high degree of DNA fragmentation | highly sensitive |
| Cc1c(C)c2c(c(C)c1OC(=O)CCC(=O)O)CC[C@@](C)(CCC[C@H](C)CCC[C@H](C)CCCC(C)C)O2 [vitamin E succinate (VES), vitamin E succinate] | high degree of DNA fragmentation | highly sensitive |
| ceramide | high degree of DNA fragmentation | highly sensitive |
